The values below come from patent publication US20050148627A1, “Benzopyran compounds for use in the treatment and prevention of inflammation related conditions” (priority 2003, published 2005).

This assay has as its target COX-1 (Homo sapiens, UniProt P23219). Briefly: biochemical.

Several values for one entry are separate records, joined by “and”; a condition that tells them apart may be missing. Identical values can stand only once.

COX-1, sequence (P23219 24-599): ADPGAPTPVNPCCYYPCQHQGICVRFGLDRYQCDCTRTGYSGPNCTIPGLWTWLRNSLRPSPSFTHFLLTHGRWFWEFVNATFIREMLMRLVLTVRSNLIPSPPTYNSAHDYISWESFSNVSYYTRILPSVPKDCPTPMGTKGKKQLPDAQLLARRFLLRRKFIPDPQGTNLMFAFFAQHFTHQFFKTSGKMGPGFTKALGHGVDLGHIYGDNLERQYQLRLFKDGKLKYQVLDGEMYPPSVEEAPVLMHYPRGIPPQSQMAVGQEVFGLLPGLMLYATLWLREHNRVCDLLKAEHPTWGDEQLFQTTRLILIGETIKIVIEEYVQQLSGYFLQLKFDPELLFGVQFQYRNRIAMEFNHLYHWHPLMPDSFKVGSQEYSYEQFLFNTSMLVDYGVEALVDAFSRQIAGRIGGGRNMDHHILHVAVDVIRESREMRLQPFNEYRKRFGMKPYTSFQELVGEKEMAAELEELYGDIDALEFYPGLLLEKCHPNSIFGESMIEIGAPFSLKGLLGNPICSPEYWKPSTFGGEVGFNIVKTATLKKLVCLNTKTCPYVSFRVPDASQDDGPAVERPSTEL

As for `Cc1cc(Cl)cc2c1O[C@@H](C(F)(F)F)C(C(=O)O)=C2` (single isomer, unassigned) [Example 21u], the 50% inhibitory concentration (IC50) was > 100 µM. The result for `O=C(O)C1=Cc2cc(Cl)c(Cc3ccccc3Cl)cc2OC1C(F)(F)F` (stereo not shown) [Example 9n, 6-chloro-7-(2-chlorobenzyl)-2-(trifluoromethyl)-2H-chromene-3-carboxylic acid] reads 0.425 µM; that for `O=C(O)C1=Cc2cccc(OCc3ccccc3)c2OC1C(F)(F)F` (stereo not shown) [Example 25g, 8-(benzyloxy)-2-(trifluoromethyl)-2H-chromene-3-carboxylic acid], > 100 µM and 80.7 µM. Turning to `COc1cc2c(c(Cl)c1Cl)OC(C(F)(F)F)C(C(=O)O)=C2` (stereo not shown) [Example 19, 7,8-dichloro-6-methoxy-2-(trifluoromethyl)-2H-chromene-3-carboxylic acid], the half-inhibitory concentration (IC50) is 82.1 µM and 34.7 µM. As for `CC(C)(C)CCOc1c(Cl)cc2c(c1Cl)OC(C(F)(F)F)C(C(=O)O)=C2` (stereo not shown) [Example 1d, 6,8-dichloro-7-(3,3-dimethylbutoxy)-2-(trifluoromethyl)-2H-chromene-3-carboxylic acid], half-maximal inhibition (IC50) was put at 49.2 µM. As for `Cc1cc2c(c(C)c1Cl)C=C(C(=O)O)[C@H](C(F)(F)F)O2` [Example 101, (2R)-6-chloro-5,7-dimethyl-2-(trifluoromethyl)-2H-chromene-3-carboxylic acid], the IC50 was > 100 µM and 430 µM and > 500 µM. In the case of `O=C(O)C1=Cc2c(cc(Cc3ccccc3)c(Cl)c2Cl)OC1C(F)(F)F` (stereo not shown) [Example 13, 7-benzyl-5,6-dichloro-2-(trifluoromethyl)-2H-chromene-3-carboxylic acid] it was 4.18 µM and 2.79 µM; in that of `Cc1cc(C)c2c(c1Cl)C=C(C(=O)O)C(C(F)(F)F)O2` (stereo not shown) [Example 33, 5-chloro-6,8-dimethyl-2-(trifluoromethyl)-2H-chromene-3-carboxylic acid], 8.28 µM and 6.09 µM and 43.4 µM and 18.5 µM. In the case of `O=C(O)C1=Cc2ccc(Oc3ccc([N+](=O)[O-])cc3F)cc2OC1C(F)(F)F` (stereo not shown) [Example 5a, 7-(2-fluoro-4-nitrophenoxy)-2-(trifluoromethyl)-2H-chromene-3-carboxylic acid] it was > 100 µM and 264 µM and 199 µM. The result for `O=C(O)C1=Cc2cc(Cl)c(OCC3CCCC3)cc2OC1C(F)(F)F` (stereo not shown) [Example 2d, 6-chloro-7-(cyclopentylmethoxy)-2-(trifluoromethyl)-2H-chromene-3-carboxylic acid] reads 44.3 µM; that for `O=C(O)C1=Cc2cc(O)cc(Cl)c2OC1C(F)(F)F` (stereo not shown) [Example 17b, 8-chloro-6-hydroxy-2-(trifluoromethyl)-2H-chromene-3-carboxylic acid], > 100 µM and 455 µM. For `C=C(c1ccccc1)c1ccc2c(c1)OC(C(F)(F)F)C(C(=O)O)=C2` (stereo not shown) [Example 37a, 7-(1-phenylvinyl)-2-(trifluoromethyl)-2H-chromene-3-carboxylic acid], the 50% inhibitory concentration (IC50) came to 69.4 µM. Consider `CC(C)(C)CCOc1cc2c(cc1Cl)C=C(C(=O)O)C(C(F)(F)F)O2` (stereo not shown) [Example 2e, 6-chloro-7-(3,3-dimethylbutoxy)-2-(trifluoromethyl)-2H-chromene-3-carboxylic acid], for which the concentration for half-maximal inhibition (IC50) was 68.8 µM. In the case of `CCOc1cc(C)cc2c1OC(C(F)(F)F)C(C(=O)O)=C2` (stereo not shown) [Example 31, 8-ethoxy-6-methyl-2-(trifluoromethyl)-2H-chromene-3-carboxylic acid] it was > 500 µM; in that of `CCc1ccc2c(c1)C=C(C(=O)O)[C@@H](C(F)(F)F)O2` (single isomer, unassigned) [Example 34b], 57.9 µM and 35.5 µM. The result for `O=C(O)C1=Cc2cc(Cl)c(Cc3ccc(F)c(F)c3)cc2OC1C(F)(F)F` (stereo not shown) [Example 9z, 6-chloro-7-(3,4-difluorobenzyl)-2-(trifluoromethyl)-2H-chromene-3-carboxylic acid] reads 27.4 µM. The result for `O=C(O)C1=Cc2cc(Cl)c(Cc3ccccc3)cc2OC1C(F)(F)F` (stereo not shown) [Example 9k, 7-benzyl-6-chloro-2-(trifluoromethyl)-2H-chromene-3-carboxylic acid] reads 0.603 µM and 2.17 µM; that for `CC(C)(C=O)c1ccc2c(c1)OC(C(F)(F)F)C(C(=O)O)=C2` (stereo not shown) [Example 114, 7-(1,1-dimethyl-2-oxoethyl)-2-(trifluoromethyl)-2H-chromene-3-carboxylic acid], 63.9 µM; that for `CCCSc1cc2c(cc1Cl)C=C(C(=O)O)C(C(F)(F)F)O2` (stereo not shown) [Example 7c, 6-chloro-7-(propylthio)-2-(trifluoromethyl)-2H-chromene-3-carboxylic acid], > 100 µM. Consider `CCN(C)c1cc2c(cc1Cl)C=C(C(=O)O)C(C(F)(F)F)O2` (stereo not shown) [Example 8f, 6-chloro-7-[ethyl(methyl)amino]-2-(trifluoromethyl)-2H-chromene-3-carboxylic acid], for which the IC50 is > 100 µM.

Turning to `O=C(O)C1=Cc2cc(OCC(F)(F)F)cc(Cl)c2OC1C(F)(F)F` (stereo not shown) [Example 17c, 8-chloro-6-(2,2,2-trifluoroethoxy)-2-(trifluoromethyl)-2H-chromene-3-carboxylic acid], the IC50 was 3.58 µM and 0.623 µM. As to `Cc1c(Cc2ccccc2)ccc2c1OC(C(F)(F)F)C(C(=O)O)=C2` (stereo not shown) [Example 14b, 7-benzyl-8-methyl-2-(trifluoromethyl)-2H-chromene-3-carboxylic acid], the 50% inhibitory concentration (IC50) is < 0.137 µM. Regarding `COc1c(Cl)c(Cl)c2c(c1Cl)C=C(C(=O)O)C(C(F)(F)F)O2` (stereo not shown) [Example 20a, 5,7,8-trichloro-6-methoxy-2-(trifluoromethyl)-2H-chromene-3-carboxylic acid], the IC50 was < 0.137 µM. The result for `Cc1c(OCC2CC2)c(Cl)cc2c1OC(C(F)(F)F)C(C(=O)O)=C2` (stereo not shown) [Example 3d, 6-chloro-7-(cyclopropylmethoxy)-8-methyl-2-(trifluoromethyl)-2H-chromene-3-carboxylic acid] reads < 0.137 µM.

On to `CC(C)CNc1c(Cl)cc2c(c1Cl)OC(C(F)(F)F)C(C(=O)O)=C2` (stereo not shown) [Example 38c, 6,8-dichloro-7-(isobutylamino)-2-(trifluoromethyl)-2H-chromene-3-carboxylic acid], for which the half-maximal inhibitory concentration (IC50) is < 0.137 µM. The result for `COCC(C)(C)c1cc2c(cc1Cl)C=C(C(=O)O)C(C(F)(F)F)O2` (stereo not shown) [Example 116, 6-chloro-7-(2-methoxy-1,1-dimethylethyl)-2-(trifluoromethyl)-2H-chromene-3-carboxylic acid] reads > 100 µM. Compound `O=C(O)C1=Cc2cc(-c3ccc(F)cc3)ccc2NC1C(F)(F)F` (stereo not shown) [Example 48, 6-(4-fluorophenyl)-2-(trifluoromethyl)-1,2-dihydroquinoline-3-carboxylic acid] returned an IC50 of 42.7 µM.

As for `CCCC(C)(C)c1ccc2c(c1)OC(C(F)(F)F)C(C(=O)O)=C2` (stereo not shown) [Example 108, 7-(1,1-dimethylbutyl)-2-(trifluoromethyl)-2H-chromene-3-carboxylic acid], the IC50 was > 100 µM and 169 µM.

Take `O=C(O)C1=Cc2cc(Cl)c(CCc3ccc(Cl)cc3)cc2OC1C(F)(F)F` (stereo not shown) [Example 9j, 6-chloro-7-[2-(4-chlorophenyl)ethyl]-2-(trifluoromethyl)-2H-chromene-3-carboxylic acid]: the IC50 is 11.4 µM and 14 µM. Turning to `O=C(O)C1=Cc2cc(OC3CCCCC3)cc(Cl)c2OC1C(F)(F)F` (stereo not shown) [Example 17g, 8-chloro-6-(cyclohexyloxy)-2-(trifluoromethyl)-2H-chromene-3-carboxylic acid], the IC50 is 0.5 µM and 0.392 µM.

For the compound `Cc1c(OCC(C)C)c(Cl)cc2c1OC(C(F)(F)F)C(C(=O)O)=C2` (stereo not shown) [Example 3e, 6-chloro-7-isobutoxy-8-methyl-2-(trifluoromethyl)-2H-chromene-3-carboxylic acid], the IC50 was < 0.137 µM. In the case of `CCC#Cc1cc(OC(F)(F)F)cc2c1OC(C(F)(F)F)C(C(=O)O)=C2` (stereo not shown) [Example 21q, 8-but-1-ynyl-6-(trifluoromethoxy)-2-(trifluoromethyl)-2H-chromene-3-carboxylic acid] it was 5.71 µM; in that of `Cc1c(O)c(Cl)cc2c1OC(C(F)(F)F)C(C(=O)O)=C2` (stereo not shown) [Example 3i, 6-chloro-7-hydroxy-8-methyl-2-(trifluoromethyl)-2H-chromene-3-carboxylic acid], > 97.6 µM; in that of `COc1c(Cl)c(Cl)c(Br)c2c1OC(C(F)(F)F)C(C(=O)O)=C2` (stereo not shown) [Example 30, 5-bromo-6,7-dichloro-8-methoxy-2-(trifluoromethyl)-2H-chromene-3-carboxylic acid], 193 µM and > 100 µM. The result for `CC1CC(C)CN(c2cc3c(cc2Cl)C=C(C(=O)O)C(C(F)(F)F)O3)C1` (stereo not shown) [Example 8a, 6-chloro-7-(3,5-dimethylpiperidin-1-yl)-2-(trifluoromethyl)-2H-chromene-3-carboxylic acid] reads > 100 µM and 57.2 µM; that for `CCCOc1c(Cl)c(Cl)c(Cl)c2c1OC(C(F)(F)F)C(C(=O)O)=C2` (stereo not shown) [Example 28a, 5,6,7-trichloro-8-propoxy-2-(trifluoromethyl)-2H-chromene-3-carboxylic acid], 43.6 µM and 41.3 µM; that for `CCCc1cc2c(cc1Cc1ccccc1)OC(C(F)(F)F)C(C(=O)O)=C2` (stereo not shown) [Example 42c, 7-benzyl-6-propyl-2-(trifluoromethyl)-2H-chromene-3-carboxylic acid], > 100 µM.

Turning to `O=C(O)C1=Cc2cc(Cl)c(I)c(Cl)c2OC1C(F)(F)F` (stereo not shown) [Example 22, 6,8-dichloro-7-iodo-2-(trifluoromethyl)-2H-chromene-3-carboxylic acid], the IC50 is > 1 µM and 25.6 µM and 12.4 µM. `O=C(O)C1=Cc2c(cc3c(c2Cl)OCO3)OC1C(F)(F)F` (stereo not shown) [Example 119, 9-chloro-6-(trifluoromethyl)-6H-[1,3]dioxolo[4,5-g]chromene-7-carboxylic acid]: the 50% inhibitory concentration (IC50) was > 500 µM. As to `CSc1cc(Cl)cc2c1OC(C(F)(F)F)C(C(=O)O)=C2` (stereo not shown) [Example 44, 6-chloro-8-(methylthio)-2-(trifluoromethyl)-2H-chromene-3-carboxylic acid], the IC50 is 0.185 µM and 0.12 µM and < 0.137 µM.

As to `CC(C)(C)Oc1ccc2c(c1)OC(C(F)(F)F)C(C(=O)O)=C2` (stereo not shown) [Example 5b, 7-tert-butoxy-2-(trifluoromethyl)-2H-chromene-3-carboxylic acid], the IC50 was > 500 µM. For `O=C(O)C1=Cc2cc(OCc3ccccc3)cc(Cl)c2OC1C(F)(F)F` (stereo not shown) [Example 17d, 6-(benzyloxy)-8-chloro-2-(trifluoromethyl)-2H-chromene-3-carboxylic acid], the IC50 is 0.365 µM and < 0.137 µM.

`CC#Cc1cc(OC(F)(F)F)cc2c1OC(C(F)(F)F)C(C(=O)O)=C2` (stereo not shown) [Example 21d, 8-prop-1-ynyl-6-(trifluoromethoxy)-2-(trifluoromethyl)-2H-chromene-3-carboxylic acid] gave an IC50 of 0.182 µM.

Usually IC50 stands for the concentration that gives 50% inhibition.
